Assay results published in US5945325A, “Thermally stable para-nitrobenzyl esterases” (priority 1998, dated 1999).
Like-named read-outs stand apart in the source and are kept apart here.

What was measured:
Assay in all cases: Kinetic assays of purified pNB esterase on ester substrates in DMF/PIPES
Type in all cases: biochemical
[1] = molecular target: Bacillus subtilis para-nitrobenzyl esterase variant 4-43E7 (3-10C4 plus Leu 334 Val and one more substitution), SEQ. ID. NO. 12 (Bacillus subtilis, UniProt P37967, form not given/H322R/L144M/L334V/M358V/S94G/Y370F); details: 0.1 M PIPES pH 7.0, 30° C.
Chain of Bacillus subtilis para-nitrobenzyl esterase variant 4-43E7 (3-10C4 plus Leu 334 Val and one more substitution), SEQ. ID. NO. 12 (P37967 other isoform, or with tags, fused parts or gaps with the stated changes, form open): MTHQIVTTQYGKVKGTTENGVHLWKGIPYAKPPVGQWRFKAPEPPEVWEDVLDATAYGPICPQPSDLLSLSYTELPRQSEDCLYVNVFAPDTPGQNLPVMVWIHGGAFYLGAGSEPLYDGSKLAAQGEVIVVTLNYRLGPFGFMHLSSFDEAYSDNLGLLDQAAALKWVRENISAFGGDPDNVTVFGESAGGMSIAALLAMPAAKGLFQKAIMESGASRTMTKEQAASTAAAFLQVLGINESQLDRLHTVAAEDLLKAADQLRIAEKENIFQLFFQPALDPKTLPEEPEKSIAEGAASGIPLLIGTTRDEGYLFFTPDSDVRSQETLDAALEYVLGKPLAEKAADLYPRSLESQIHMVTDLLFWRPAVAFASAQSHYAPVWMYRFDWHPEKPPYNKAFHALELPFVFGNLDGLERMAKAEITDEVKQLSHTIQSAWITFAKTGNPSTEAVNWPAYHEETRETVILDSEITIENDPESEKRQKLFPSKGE
Method: (§1) FIG. 8a is a plot of variant and wild type pNB esterase reaction kinetics on pNPA in aqueous buffer (0% dimethylformamide). Enzymes were added to a 30° C. reaction solution consisting of 0.1 M PIPES (pH 7.0) and varying concentrations of pNPA.
(§2) FIG. 8b is a plot of variant and wild type pNB esterase reaction kinetics on pNPA in 15% DMF. Enzymes were added to a 30° C. reaction solution consisting of 0.1 M PIPES (pH 7.0), 15% DMF, and varying concentrations of pNPA.
(§3) FIG. 8c is a plot of variant and wild type pNB esterase reaction kinetics on pNPA in 30% DMF. Enzyme were added to a 30° C. reaction solution consisting of 0.1 M PIPES (pH 7.0), 30% DMF, and varying concentrations of pNPA.
(§4) FIG. 9a is a plot of variant wild type pNB esterase kinetics on LCN-pNP in 1% DMF. Enzymes listed were added to a 30° C. reaction solution consisting of 0.1 M PIPES (pH 7.0), 1% DMF, and varying concentrations of LCN-pNP.
(§5) FIG. 9b is a plot of variant and wild type pNB esterase reaction kinetics on LCN-pNP in 15% DMF. Enzymes were added to a 30° C. reaction solution consisting of 0.1 M PIPES (pH 7.0), 15% DMF, and varying concentrations of LCN-pNP.
(§6) FIG. 9c is a plot of variant and wild type pNB esterase reaction kinetics on LCN-pNP in 30% DMF. Enzymes were added to a 30° C. reaction solution consisting of 0.1 M PIPES (pH 7.0), 30% DMF, and varying concentrations of LCN-pNP.
(§7) FIG. 10a is a plot of variant and wild type pNB esterase reaction kinetics on LCN-pNB in 1% DMF. Enzymes were added to a 30° C. reaction solution consisting of 0.1 M PIPES (pH 7.0), 1% DMF, and varying concentrations of LCN-pNB.
(§8) FIG. 10b is a plot of variant and wild type pNB esterase reaction kinetics on LCN-pNB in 15% DMF. Enzyme were added to a 30° C. reaction solution consisting of 0.1 M PIPES (pH 7.0), 15% DMF, and varying concentrations of LCN-pNB.
(§9) Bacteria expressing seven pNB esterases, O-WT (SEQ. ID. NO. 2), 1-1H9, 2-19E10, 3-10C4, 4-38B9, 4-43E7, and 4-54B9, were grown in on cultures, and the enzymes were purified. These purified enzymes were assayed for their ability to hydrolyze the different ester substrates in the presence of various concentrations of DMF. FIGS. 8a, b and c show the specific reaction rates on pNPA as a function of pNPA substrate concentration for this series of evolved variants from the four generations of mutagenesis and screening. […] The wild type enzyme outperforms 1-1H9 in purely aqueous buffer (FIG. 8a). The actual screening, however, was performed in the presence of DMF, and in 15 and 30% DMF, 1-1H9 has higher specific activity towards pNPA than wild type (FIGS. 8b and 8c). Similar trends are seen for the remaining variants assayed on this substrate. […] In 30% DMF, wild type drops still further relative to the pNB esterase variants. Variants 4-38B9 and 4-43E7, presumably by virtue of having been screened in DMF for four rounds of mutagenesis, are the best performers in 30% DMF.
(§10) DMF dramatically increases KM while also decreasing kcat. For the LCN substrates, the mutations accumulated during directed evolution mitigate the increased KM. […] At substrate concentrations […], increased specific activity will result mainly from improvements in kcat. These improvements are the most useful for enzymes intended to be used for transformations in high substrate concentrations.
(§11) Kinetic assays were performed on three substrates: pNPA, LCN-pNP, and p-nitrobenzyl loracarbef nucleus (LCN-pNB). For pNPA and LCN-pNP substrates, final concentrations varying from 0.0625 mM to 16 mM and 0, 15, and 30% DMF in 0.1 M PIPES (pH 7.0) were combined with equal volumes of enzyme samples. These samples were mixed simultaneously in a 96 well plate and monitored with the 96 well plate reader. The absorbance values were recorded, linearly regressed, and then used for calculating kinetic parameters. […]

[2] = molecular target: Bacillus subtilis para-nitrobenzyl esterase variant 3-10C4 (2-19E10 plus Leu 144 Met), SEQ. ID. NO. 8 (Bacillus subtilis, UniProt P37967, form not given/H322R/L144M/M358V/Y370F); details: 0.1 M PIPES pH 7.0, 30° C.
Chain of Bacillus subtilis para-nitrobenzyl esterase variant 3-10C4 (2-19E10 plus Leu 144 Met), SEQ. ID. NO. 8 (P37967 other isoform, or with tags, fused parts or gaps with the stated changes, form open): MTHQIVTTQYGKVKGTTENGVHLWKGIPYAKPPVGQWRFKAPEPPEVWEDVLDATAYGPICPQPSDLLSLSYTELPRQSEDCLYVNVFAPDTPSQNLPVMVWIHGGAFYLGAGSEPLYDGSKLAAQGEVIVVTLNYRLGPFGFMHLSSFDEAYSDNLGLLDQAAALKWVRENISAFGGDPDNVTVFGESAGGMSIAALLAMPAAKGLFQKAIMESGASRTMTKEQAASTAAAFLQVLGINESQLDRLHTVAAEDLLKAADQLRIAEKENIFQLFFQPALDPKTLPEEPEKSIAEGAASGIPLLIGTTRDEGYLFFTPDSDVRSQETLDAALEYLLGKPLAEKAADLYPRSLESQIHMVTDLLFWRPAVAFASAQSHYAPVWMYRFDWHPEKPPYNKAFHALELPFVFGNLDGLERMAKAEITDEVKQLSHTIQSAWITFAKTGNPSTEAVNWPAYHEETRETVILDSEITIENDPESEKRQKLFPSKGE
Method: as §1, §2, §3, §4, §5, §6, §7, §8, §9, §10, §11

[3] = molecular target: Bacillus subtilis para-nitrobenzyl esterase (pNB esterase), wild type 0-WT, SEQ. ID. NO. 2 (Bacillus subtilis, UniProt P37967); details: 0.1 M PIPES pH 7.0, 30° C.
Chain of Bacillus subtilis para-nitrobenzyl esterase (pNB esterase), wild type 0-WT, SEQ. ID. NO. 2 (P37967 whole entry K23L/S59P/K95Q/N150D/S230A/G242S/K246R/S251A/A291S/V343A/K390E/L463V): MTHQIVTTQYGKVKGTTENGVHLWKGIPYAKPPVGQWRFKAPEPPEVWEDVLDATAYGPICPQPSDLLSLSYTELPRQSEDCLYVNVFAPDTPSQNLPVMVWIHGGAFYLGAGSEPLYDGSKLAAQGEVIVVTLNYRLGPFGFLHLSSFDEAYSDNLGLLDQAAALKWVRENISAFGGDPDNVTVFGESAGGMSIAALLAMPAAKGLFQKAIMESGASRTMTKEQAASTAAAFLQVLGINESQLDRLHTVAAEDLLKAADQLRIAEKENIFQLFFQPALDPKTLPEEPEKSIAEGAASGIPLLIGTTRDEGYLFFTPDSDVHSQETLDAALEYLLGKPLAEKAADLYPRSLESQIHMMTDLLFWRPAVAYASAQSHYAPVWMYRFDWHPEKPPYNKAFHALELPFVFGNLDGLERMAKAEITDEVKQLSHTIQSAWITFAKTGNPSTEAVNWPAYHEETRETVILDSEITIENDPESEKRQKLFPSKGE
Method: as §1, §2, §3, §4, §5, §6, §7, §8, §9, §10, §11

[4] = molecular target: Bacillus subtilis para-nitrobenzyl esterase variant 2-19E10 (1-1H9 substitutions plus Met 358 Val), SEQ. ID. NO. 6 (Bacillus subtilis, UniProt P37967, form not given/H322R/M358V/Y370F); details: 0.1 M PIPES pH 7.0, 30° C.
Chain of Bacillus subtilis para-nitrobenzyl esterase variant 2-19E10 (1-1H9 substitutions plus Met 358 Val), SEQ. ID. NO. 6 (P37967 whole entry K23L/S59P/K95Q/N150D/S230A/G242S/K246R/S251A/A291S/H322R/V343A/M358V/Y370F/K390E/L463V, form open): as the sequence (P37967 whole entry K23L/S59P/K95Q/N150D/S230A/G242S/K246R/S251A/A291S/V343A/K390E/L463V) above, with H322R, M358V, Y370F counted along it
Method: as §1, §2, §3, §4, §5, §6, §7, §8, §9, §10, §11

[5] = molecular target: Bacillus subtilis para-nitrobenzyl esterase variant 4-54B9 (3-10C4 plus Leu 334 Ser and one more substitution), SEQ. ID. NO. 14 (Bacillus subtilis, UniProt P37967, form not given/H322R/K267R/L144M/L334S/M358V/Y370F); details: for kcat (p-nitrophenyl loracarbef nucleus) / Km / kcat (p-nitrobenzyl loracarbef nucleus): 0.1 M PIPES pH 7.0, 30° C.
Chain of Bacillus subtilis para-nitrobenzyl esterase variant 4-54B9 (3-10C4 plus Leu 334 Ser and one more substitution), SEQ. ID. NO. 14 (P37967 other isoform, or with tags, fused parts or gaps with the stated changes, form open): as the sequence (P37967 whole entry K23L/S59P/K95Q/N150D/S230A/G242S/K246R/S251A/A291S/V343A/K390E/L463V) above, with L144M, K267R, H322R, L334S, M358V, Y370F counted along it
Method: as §1, §2, §3, §4, §5, §6, §7, §8, §9, §10, §11

[6] = molecular target: Bacillus subtilis para-nitrobenzyl esterase variant 4-38B9 (3-10C4 plus Ile 60 Val), SEQ. ID. NO. 10 (Bacillus subtilis, UniProt P37967, form not given/H322R/I60V/L144M/M358V/Y370F); details: 0.1 M PIPES pH 7.0, 30° C.
Chain of Bacillus subtilis para-nitrobenzyl esterase variant 4-38B9 (3-10C4 plus Ile 60 Val), SEQ. ID. NO. 10 (P37967 other isoform, or with tags, fused parts or gaps with the stated changes, form open): as the sequence (P37967 whole entry K23L/S59P/K95Q/N150D/S230A/G242S/K246R/S251A/A291S/V343A/K390E/L463V) above, with I60V, L144M, H322R, M358V, Y370F counted along it
Method: as §1, §2, §3, §4, §5, §6, §7, §8, §9, §10, §11

[7] = molecular target: T1, Bacillus subtilis para-nitrobenzyl esterase variant 1-1H9 (incl. Tyr 370 Phe), SEQ. ID. NO. 4 (Bacillus subtilis, UniProt P37967, form not given/H322R/Y370F); details: 0.1 M PIPES pH 7.0, 30° C.
T1 sequence (P37967 whole entry K23L/S59P/K95Q/N150D/S230A/G242S/K246R/S251A/A291S/H322R/V343A/Y370F/K390E/L463V, form open): as the sequence (P37967 whole entry K23L/S59P/K95Q/N150D/S230A/G242S/K246R/S251A/A291S/V343A/K390E/L463V) above, with H322R, Y370F counted along it
Method: as §1, §2, §3, §4, §5, §6, §7, §8
Bacteria expressing seven pNB esterases, O-WT (SEQ. ID. NO. 2), 1-1H9, 2-19E10, 3-10C4, 4-38B9, 4-43E7, and 4-54B9, were grown in on cultures, and the enzymes were purified. These purified enzymes were assayed for their ability to hydrolyze the different ester substrates in the presence of various concentrations of DMF.
Kinetic assays were performed on three substrates: pNPA, LCN-pNP, and p-nitrobenzyl loracarbef nucleus (LCN-pNB). For pNPA and LCN-pNP substrates, final concentrations varying from 0.0625 mM to 16 mM and 0, 15, and 30% DMF in 0.1 M PIPES (pH 7.0) were combined with equal volumes of enzyme samples. These samples were mixed simultaneously in a 96 well plate and monitored with the 96 well plate reader. The absorbance values were recorded, linearly regressed, and then used for calculating kinetic parameters. For the LCN-pNB substrate, final concentrations varying from 0.0156 mM to 8.0 mM and 0, 15 and 30% DMF in PIPES (pH 7.0) were combined with enzyme samples in a quartz cuvette and were measured in a spectrophotometer at 289 nm. All assays were measured in triplicate.

[8] = molecular target: T1, Bacillus subtilis para-nitrobenzyl esterase variant 1-1H9 (incl. Tyr 370 Phe), SEQ. ID. NO. 4; details: 0% DMF, 0.1 M PIPES pH 7.0, 30° C.
[9] = 0% DMF, read-out: Km (p-nitrophenyl loracarbef nucleus)
[10] = 15% DMF, read-out: Km (p-nitrophenyl loracarbef nucleus)
[11] = 30% DMF, read-out: Km (p-nitrophenyl loracarbef nucleus)
[12] = 0% DMF, read-out: Km (p-nitrobenzyl loracarbef nucleus)
[13] = 15% DMF, read-out: Km (p-nitrobenzyl loracarbef nucleus)
[14] = 15% DMF, on LCN-pNB, relative to wild type

NC1C(=O)N2C(C(=O)Oc3ccc([N+](=O)[O-])cc3)=C(Cl)CCC12 (stereo not drawn) [p-nitrophenyl loracarbef nucleus]
kcat (p-nitrophenyl loracarbef nucleus) ([1]; 0% DMF): 0.67 | Km [1, 9]: 80 µM | kcat (p-nitrophenyl loracarbef nucleus) ([1]; 15% DMF): 0.40 | Km [1, 10]: 1270 µM | kcat (p-nitrophenyl loracarbef nucleus) ([1]; 30% DMF): 0.094 | Km [1, 11]: 5090 µM | kcat (p-nitrophenyl loracarbef nucleus) ([2]; 0% DMF): 0.35 | Km [2, 9]: 110 µM | kcat (p-nitrophenyl loracarbef nucleus) ([2]; 15% DMF): 0.21 | Km [2, 10]: 1770 µM | kcat (p-nitrophenyl loracarbef nucleus) ([2]; 30% DMF): 0.044 | Km [2, 11]: 5180 µM | kcat (p-nitrophenyl loracarbef nucleus) ([3]; 0% DMF): 0.14 | Km [3, 9]: 70 µM | kcat (p-nitrophenyl loracarbef nucleus) ([3]; 15% DMF): 0.10 | Km [3, 10]: 2360 µM | kcat (p-nitrophenyl loracarbef nucleus) ([3]; 30% DMF): 0.024 | Km [3, 11]: 7550 µM | kcat (p-nitrophenyl loracarbef nucleus) ([4]; 0% DMF): 0.25 | Km [4, 9]: 90 µM | kcat (p-nitrophenyl loracarbef nucleus) ([4]; 15% DMF): 0.12 | Km [4, 10]: 1500 µM | kcat (p-nitrophenyl loracarbef nucleus) ([4]; 30% DMF): 0.023 | Km [4, 11]: 4670 µM | kcat (p-nitrophenyl loracarbef nucleus) ([5]; 0% DMF): 1.44 | Km [5, 9]: 120 µM | kcat (p-nitrophenyl loracarbef nucleus) ([5]; 15% DMF): 0.93 | Km [5, 10]: 1270 µM | kcat (p-nitrophenyl loracarbef nucleus) ([5]; 30% DMF): 0.141 | Km [5, 11]: 2920 µM | kcat (p-nitrophenyl loracarbef nucleus) ([6]; 0% DMF): 0.39 | Km [6, 9]: 60 µM | kcat (p-nitrophenyl loracarbef nucleus) ([6]; 15% DMF): 0.25 | Km [6, 10]: 1410 µM | kcat (p-nitrophenyl loracarbef nucleus) ([6]; 30% DMF): 0.067 | Km [6, 11]: 5680 µM | kcat (p-nitrophenyl loracarbef nucleus) ([7]; 15% DMF): 0.07 | Km [7, 10]: 1840 µM | kcat (p-nitrophenyl loracarbef nucleus) ([7]; 30% DMF): 0.021 | Km [7, 11]: 6050 µM | kcat (p-nitrophenyl loracarbef nucleus) [8]: 0.08 | Km ([8]; read-out: Km (p-nitrophenyl loracarbef nucleus)): 30 µM

NC1C(=O)N2C(C(=O)OCc3ccc([N+](=O)[O-])cc3)=C(Cl)CCC12 (stereo not drawn) [p-nitrobenzyl loracarbef nucleus]
kcat (p-nitrobenzyl loracarbef nucleus) ([1]; 0% DMF): 9.13 | Km [1, 12]: 30 µM | kcat (p-nitrobenzyl loracarbef nucleus) ([1]; 15% DMF): 3.02 | Km [1, 13]: 370 µM | kcat (p-nitrobenzyl loracarbef nucleus) ([2]; 0% DMF): 6.53 | Km [2, 12]: 70 µM | kcat (p-nitrobenzyl loracarbef nucleus) ([2]; 15% DMF): 1.62 | Km [2, 13]: 400 µM | kcat (p-nitrobenzyl loracarbef nucleus) ([3]; 0% DMF): 1.64 | Km [3, 12]: 40 µM | kcat (p-nitrobenzyl loracarbef nucleus) ([3]; 15% DMF): 0.54 | Km [3, 13]: 880 µM | kcat (p-nitrobenzyl loracarbef nucleus) ([4]; 0% DMF): 4.59 | Km [4, 12]: 40 µM | kcat (p-nitrobenzyl loracarbef nucleus) ([4]; 15% DMF): 1.81 | Km [4, 13]: 870 µM | kcat (p-nitrobenzyl loracarbef nucleus) ([5]; 0% DMF): 18.96 | Km [5, 12]: 50 µM | kcat (p-nitrobenzyl loracarbef nucleus) ([5]; 15% DMF): 6.84 | Km [5, 13]: 460 µM | KM change from wild type to 4-54B9 [5, 14]: decreases by less than a factor of two | kcat increase from wild type to 4-54B9 [5, 14]: more than 9 fold | kcat (p-nitrobenzyl loracarbef nucleus) ([6]; 0% DMF): 8.51 | Km [6, 12]: 40 µM | kcat (p-nitrobenzyl loracarbef nucleus) ([6]; 15% DMF): 1.89 | Km [6, 13]: 310 µM | kcat (p-nitrobenzyl loracarbef nucleus) ([7]; 15% DMF): 0.69 | Km [7, 13]: 850 µM | kcat (p-nitrobenzyl loracarbef nucleus) [8]: 1.94 | Km ([8]; read-out: Km (p-nitrobenzyl loracarbef nucleus)): 40 µM
